Read-outs that look alike come from different tables or passages of the source.
Assays:
[1] = tested on: genetically or deoxycorticosterone acetate/sodium chloride fed hypertensive rats; experiment: Anti-hypertensive activity in hypertensive rats (indirect systolic blood pressure from the tail, heart rate); format: in vivo, rat (Charles River male); conditions: 10 mg/kg p.o., 6 hours after administration
Protocol: For example, Doca-Na hypertension is induced in Charles River male rats weighing 170-210 grams by unilateral nephrectomy followed by subcutaneous implantation of a 25 mg. deoxycorticosterone acetate pellet. Animals are placed in individual cages and receive 0.9% sodium chloride solution and rat chow diet ad libitum. Two weeks are allowed to elapse from the time of surgery for development of hypertension, i.e., systolic blood pressure above 150 mm Hg. Systolic blood pressure is measured indirectly from the tail of unanesthetized rats (restrained in holders heated for 5-10 minutes at 37°-38° C.) using a pneumatic pulse transducer (piezo-electric crystal and occluding cuff). The transducer and occluding cuff are coupled to a two-channel recorder. Control readings are taken prior to drug and at 1, 3, 6 and 24 hours post-drug. All test compounds are prepared in acacia solution (5%) and are orally administered to the test animals.

[2] = Acute toxicity (LD50) in the mouse; conditions: in vivo
[3] = tested on: tetrabenazine-induced ptosis in mice; experiment: Antidepressant activity: prevention of tetrabenazine-induced ptosis in mice; format: in vivo; conditions: Mus musculus, ip, 1 h, tetrabenazine (normally 150 mg/kg) i.p. one hour after test compound, ptosis read one hour later, read-out: ED50 (dose at which ptosis is prevented in 3/6 of the mice)
Protocol: The compounds of formulas I and II have central nervous system activity, including antidepressant activity. […] For example, six mice are treated with the test compound. One hour later a ptosis-inducing dose of tetrabenazine (normally 150 mg/kg) is given intraperitoneally. Ptosis is read one hour after the tetrabenazine injection. The ED50 is the dose at which ptosis is prevented in 3/6 of the mice. […] The ED50 is calculated by the method of Behrens. Arch. Exp. Path. & Pharm. 140, 237 (1929).

Structure (SMILES) | decrease in the blood pressure [1] | decrease in the heart rate [1] | LD50 ([2]; ip, read-out: LD50 i.p.) | LD50 ([2]; po, read-out: LD50 p.o.) | ED50 [3]
NCCNC(=S)Nc1cccc(Cl)c1Cl [1-(2-aminoethyl)-3-(2,3-dichlorophenyl)thiourea] | 51 mm/Hg | 95 beats/minutes | 450 mg/kg | > 1000 mg/kg | 
NCCNC(=S)Nc1c(Cl)cccc1Cl [1-(2-aminoethyl)-3-(2,6-dichlorophenyl)thiourea] | 73 mm/Hg | 81 beats/minutes | 450 to 550 mg/kg | 750 to 775 mg/kg | 5.7 mg/kg

Reference: US4150138A, “Method of reducing blood pressure with thiourea derivatives and guanidine derivatives” (Hoffmann-La Roche Inc., priority 1978, dated 1979)
